Values joined by “and” are separate entries in the source; they are usually repeats but may differ in a detail not shown here. Identical values can stand only once. Like-named read-outs stand apart in the source and are kept apart here. Bridge positions count the residues as written; N and C are the ends. Square brackets hold non-standard residues; d marks the D form. Peptide text beside a SMILES is read from it. hArg = N=C(N)NCCCC[C@H](N)C(=O)O; Mpa = O=C(O)CCS
What was measured:
[1] = target: T1, HEK293 cells stably expressing normal human αVβ3 (Homo sapiens, UniProt P05106+P06756); assay: αVβ3-mediated cell adhesion to vitronectin; type: cell-based; details: HEK293, n=4
T1 construct: expressed in transfected cells; host or cells: HEK293
T1 sequence (P06756 31-889 limits assumed): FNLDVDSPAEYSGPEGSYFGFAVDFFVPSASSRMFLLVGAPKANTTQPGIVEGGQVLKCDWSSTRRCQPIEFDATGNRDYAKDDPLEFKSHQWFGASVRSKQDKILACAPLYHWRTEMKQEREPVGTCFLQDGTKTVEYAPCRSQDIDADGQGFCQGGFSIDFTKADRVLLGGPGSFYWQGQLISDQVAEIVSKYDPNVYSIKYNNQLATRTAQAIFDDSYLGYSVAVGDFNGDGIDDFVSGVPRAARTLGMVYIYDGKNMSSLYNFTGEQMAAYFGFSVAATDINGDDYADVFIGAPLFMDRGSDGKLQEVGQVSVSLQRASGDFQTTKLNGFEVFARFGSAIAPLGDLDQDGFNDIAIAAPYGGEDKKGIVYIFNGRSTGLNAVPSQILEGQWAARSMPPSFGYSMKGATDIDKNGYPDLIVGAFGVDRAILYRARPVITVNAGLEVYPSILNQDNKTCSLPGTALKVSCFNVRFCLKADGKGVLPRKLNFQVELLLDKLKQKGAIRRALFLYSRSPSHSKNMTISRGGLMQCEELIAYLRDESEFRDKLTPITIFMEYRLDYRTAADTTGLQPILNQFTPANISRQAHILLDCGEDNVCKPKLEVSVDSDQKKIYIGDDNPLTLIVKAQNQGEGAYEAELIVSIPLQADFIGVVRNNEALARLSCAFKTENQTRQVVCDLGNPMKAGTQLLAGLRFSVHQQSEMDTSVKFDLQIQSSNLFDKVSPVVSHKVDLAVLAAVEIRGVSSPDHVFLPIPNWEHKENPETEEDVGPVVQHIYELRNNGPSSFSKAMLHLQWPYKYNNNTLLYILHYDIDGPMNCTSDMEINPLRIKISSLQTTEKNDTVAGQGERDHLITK
T1 sequence (P06756 891-1048 partner limits assumed): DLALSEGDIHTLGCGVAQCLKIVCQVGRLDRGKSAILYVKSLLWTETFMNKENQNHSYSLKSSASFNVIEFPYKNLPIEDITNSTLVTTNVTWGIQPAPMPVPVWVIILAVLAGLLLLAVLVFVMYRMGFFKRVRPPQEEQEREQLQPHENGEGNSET
T1 sequence (P05106 27-788): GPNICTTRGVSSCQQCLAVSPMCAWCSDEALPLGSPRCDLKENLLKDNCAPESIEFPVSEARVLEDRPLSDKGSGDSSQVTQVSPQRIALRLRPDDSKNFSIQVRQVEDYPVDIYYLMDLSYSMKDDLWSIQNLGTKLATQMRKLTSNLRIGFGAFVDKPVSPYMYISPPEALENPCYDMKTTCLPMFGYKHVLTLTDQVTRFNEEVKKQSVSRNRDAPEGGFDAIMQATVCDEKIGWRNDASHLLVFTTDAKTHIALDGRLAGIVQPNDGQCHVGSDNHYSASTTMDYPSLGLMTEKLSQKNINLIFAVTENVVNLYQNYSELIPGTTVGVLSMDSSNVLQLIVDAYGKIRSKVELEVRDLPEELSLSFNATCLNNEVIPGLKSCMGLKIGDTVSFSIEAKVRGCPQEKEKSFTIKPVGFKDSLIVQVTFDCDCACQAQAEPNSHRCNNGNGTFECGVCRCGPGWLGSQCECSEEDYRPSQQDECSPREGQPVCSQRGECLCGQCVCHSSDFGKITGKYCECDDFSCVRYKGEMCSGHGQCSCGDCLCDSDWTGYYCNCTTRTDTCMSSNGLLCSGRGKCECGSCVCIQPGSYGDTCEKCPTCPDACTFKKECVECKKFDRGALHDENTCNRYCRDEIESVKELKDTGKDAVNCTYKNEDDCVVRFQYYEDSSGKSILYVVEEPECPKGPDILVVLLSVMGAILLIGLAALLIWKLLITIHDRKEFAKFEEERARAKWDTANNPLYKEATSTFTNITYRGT
Description: Washed platelets are prepared as per the primary screening assay, suspended in HBMT containing 1 mM MgCl2 (platelet adhesion to collagen) or 2 mM CaCl2/1 mM MgCl2 (platelet adhesion to fibrinogen) and adjusted to a count of 250×10^9/L. HEK293 cells stably expressing normal human αVβ3 or normal human αIIbβ3 are suspended in HBMT containing either 1 mM MgCl2 (HEK293 cells expressing αVβ3 for adhesion to vitronectin) or 2 mM CaCl2/1 mM MgCl2 (HEK293 cells expressing αIIbβ3 for adhesion to fibrinogen); the cell counts are adjusted to 10^6/mL. Polystyrene 96-well microtiter plates (Nunc) are coated with either fibrinogen (50 μg/mL), vitronectin (5 μg/mL), or collagen (33 μg/mL, rat tail type 1; Becton Dickinson) for 1 hour, and blocked with HBMT for at least 1 hour. Platelets and cells are treated with the compound of Example 27 of the current invention or 2-ethyl-7-(piperazin-1-yl)-5H-[1,3,4]thiadiazolo-[3,2-a]pyrimidin-5-one of U.S. Ser. No. 12/514,286 in the presence or absence of anti-α2β1 mAb 6F1, anti-αIIbβ3 mAb 10E5, anti-αIIbβ3 mAb 10E5+αVβ3 mAb 7E3, αVβ3-specific mAb LM609, or anti-αVβ3+αIIbβ3 mAb 7E3, for 15 minutes at 37° C. before being added to the microtiter wells. After adhering for 1 hour at either 22° C. (platelets) or 37° C. (cells), nonadherent platelets or cells are removed by washing 3 times with HBMT containing the same ion composition as the buffer used for adhesion. […] In other experiments, 8-chambered glass coverslips (Nunc) are coated with collagen (33 μg/mL) for 1 hour at 22° C. Washed platelets are allowed to adhere for 1 hour at 22° C. and the coverslips are stained with the Alexa-488-conjugated β3-specific mAb 7H2. Adherent platelets are imaged using a Zeiss LSM-510 confocal system with Axiovert 200 microscope (Carl Zeiss, Heidelberg, Germany) using a Plan-Apochromat 100/1.4 NA oil DIC objective.

platelets [2] = assay: Platelet adhesion assay: calcein-labeled platelets on fibrinogen-coated wells; type: cell-based; details: Homo sapiens, mean±SD
Description: Thirty microliters of human fibrinogen (50 μg/mL) in Tris/saline (100 mM NaCl, 50 mM Tris/HCl, pH 7.4; American Diagnostica, Stamford, Conn.) are added to black, clear-bottom, untreated polystyrene, nonsterile 384-well microtiter plate wells (Corning no. 3711; Acton, Mass.). […] An additional wash is performed using HBMT with 1 mM MgCl2 and 2 mM CaCl2. Calcein-labeled platelets (final concentration 1×10^11/L) are treated with selected Compounds of the Invention (final concentration of 100 μM, 30 μM, 10 μM or 1 μM) at 22° C. for 20 minutes. Thirty microliters of platelets are then added to the wells. After 1 hour of adhesion, wells are washed 3 times with HBMT-1 mM MgCl2/2 mM CaCl2 and the plates are read by a fluorescent microtiter plate reader (Envision; Perkin Elmer) to detect calcein fluorescence (490 nm excitation and 515 nm emission). Negative controls consist of wells containing platelets without compounds of the invention.

platelets [3] = assay: Platelet aggregation assay: ADP-induced, platelet-rich plasma; type: cell-based, human; details: citrate anticoagulant, tested twice, read-out: IC50, ADP-induced platelet aggregation of citrated PRP
Description: […] After 30 seconds in the aggregometer (Kowa AF-10E; Tokyo, Japan) at 37° C. with stirring, ADP (5-20 μM) is added to induce aggregation and the light transmittance is measured for 8 minutes. The initial slopes of aggregation in the presence of different concentrations of the Compound being tested are used to generate an IC50.

[4] = target: T2, HEK293 cells stably expressing normal human αIIbβ3 (Homo sapiens, UniProt P05106+P08514); assay: αIIbβ3-mediated cell adhesion to fibrinogen; type: cell-based; details: same concentration as αVβ3 experiments (100 μM), n=4
T2 construct: expressed in transfected cells; host or cells: HEK293
T2 sequence (P08514 32-887 limits assumed): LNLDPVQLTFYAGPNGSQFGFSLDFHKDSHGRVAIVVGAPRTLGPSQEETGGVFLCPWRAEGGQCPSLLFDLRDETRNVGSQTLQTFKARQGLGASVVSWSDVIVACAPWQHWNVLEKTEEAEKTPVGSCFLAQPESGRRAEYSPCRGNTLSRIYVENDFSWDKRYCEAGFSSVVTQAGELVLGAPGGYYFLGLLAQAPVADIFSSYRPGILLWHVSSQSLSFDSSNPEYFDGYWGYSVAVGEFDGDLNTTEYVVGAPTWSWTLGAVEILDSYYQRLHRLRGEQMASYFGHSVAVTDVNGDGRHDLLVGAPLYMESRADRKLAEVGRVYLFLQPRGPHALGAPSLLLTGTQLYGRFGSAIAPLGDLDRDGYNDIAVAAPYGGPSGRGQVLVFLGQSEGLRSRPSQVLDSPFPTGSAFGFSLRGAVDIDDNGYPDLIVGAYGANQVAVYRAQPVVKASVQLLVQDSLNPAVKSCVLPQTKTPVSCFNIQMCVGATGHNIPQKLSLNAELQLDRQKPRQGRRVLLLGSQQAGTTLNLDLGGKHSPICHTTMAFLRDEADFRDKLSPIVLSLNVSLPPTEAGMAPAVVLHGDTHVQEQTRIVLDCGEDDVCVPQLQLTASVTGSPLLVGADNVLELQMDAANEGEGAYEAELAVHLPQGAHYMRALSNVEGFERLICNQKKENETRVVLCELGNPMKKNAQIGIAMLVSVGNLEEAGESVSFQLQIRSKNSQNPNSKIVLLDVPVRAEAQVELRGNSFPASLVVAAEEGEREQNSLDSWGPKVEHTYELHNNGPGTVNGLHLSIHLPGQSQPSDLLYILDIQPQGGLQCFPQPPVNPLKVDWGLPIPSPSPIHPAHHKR
T2 sequence (P08514 891-1039 partner limits assumed): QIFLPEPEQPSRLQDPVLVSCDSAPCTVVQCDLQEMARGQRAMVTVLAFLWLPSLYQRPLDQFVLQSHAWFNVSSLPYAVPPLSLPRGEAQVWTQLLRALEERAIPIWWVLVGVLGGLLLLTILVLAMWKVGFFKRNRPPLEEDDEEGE
T2 sequence (P05106 27-788): as the sequence (P05106 27-788) above
Description: Washed platelets are prepared as per the primary screening assay, suspended in HBMT containing 1 mM MgCl2 (platelet adhesion to collagen) or 2 mM CaCl2/1 mM MgCl2 (platelet adhesion to fibrinogen) and adjusted to a count of 250×10^9/L. HEK293 cells stably expressing normal human αVβ3 or normal human αIIbβ3 are suspended in HBMT containing either 1 mM MgCl2 (HEK293 cells expressing αVβ3 for adhesion to vitronectin) or 2 mM CaCl2/1 mM MgCl2 (HEK293 cells expressing αIIbβ3 for adhesion to fibrinogen); the cell counts are adjusted to 10^6/mL. Polystyrene 96-well microtiter plates (Nunc) are coated with either fibrinogen (50 μg/mL), vitronectin (5 μg/mL), or collagen (33 μg/mL, rat tail type 1; Becton Dickinson) for 1 hour, and blocked with HBMT for at least 1 hour. Platelets and cells are treated with the compound of Example 27 of the current invention or 2-ethyl-7-(piperazin-1-yl)-5H-[1,3,4]thiadiazolo-[3,2-a]pyrimidin-5-one of U.S. Ser. No. 12/514,286 in the presence or absence of anti-α2β1 mAb 6F1, anti-αIIbβ3 mAb 10E5, anti-αIIbβ3 mAb 10E5+αVβ3 mAb 7E3, αVβ3-specific mAb LM609, or anti-αVβ3+αIIbβ3 mAb 7E3, for 15 minutes at 37° C. before being added to the microtiter wells. After adhering for 1 hour at either 22° C. (platelets) or 37° C. […]

αIIbβ3 = target: T3, αIIbβ3 (Homo sapiens, UniProt P05106+P08514); assay: Induction of ligand-induced binding site (LIBS) epitopes, flow cytometry of washed platelets; type: cell-based; details: eptifibatide 10 μM = 100%, Example 27 at 100 μM
T3 construct: Washed platelets are prepared in HBMT containing 2 mM CaCl2/1 mM MgCl2; endogenous in cells; host or cells: washed platelets
T3 sequence (P08514 32-887 limits assumed): as the sequence (P08514 32-887 limits assumed) above
T3 sequence (P08514 891-1039 partner limits assumed): as the sequence (P08514 891-1039 partner limits assumed) above
T3 sequence (P05106 27-788): as the sequence (P05106 27-788) above
Description: Washed platelets are prepared in HBMT containing 2 mM CaCl2/1 mM MgCl2. […] Fluorescently labeled monoclonal antibodies (PMI-1, LIBS-1, AP5, or 10E5; Alexa-488 conjugated; Invitrogen) are then added (20 μL, final concentration: 5 μg/mL) and incubated for 30 minutes at 22° C. in the dark, after which samples are diluted 1:10 in HBMT with CaCl2/MgCl2 for analysis by flow cytometry (FACSCalibur; Becton Dickinson, Franklin Lakes, N.J.). Antibody binding is reported as the geometric mean fluorescence intensity; nonspecific binding is determined by adding a 50-fold excess of unlabeled antibody before adding the labeled antibody. The net normalized fluorescence intensity in the presence of eptifibatide (10 μM, 30 min incubation at 22° C.) is assigned the value of 100%

purified αIIbβ3 = target: T4, purified αIIbβ3 (Homo sapiens, UniProt P05106+P08514); assay: Extension of purified αIIbβ3 in nanodiscs by negative staining electron microscopy; details: for shift of nanodisc-integrin length (NIL) frequency distribution: 1 hour at room temperature, at highest doses majority of NIL values 18 to 23 nm
T4 construct: αIIbβ3 is purified from outdated single donor platelet concentrates obtained from the New York Blood Center; tissue New York Blood Center; host or cells: outdated single donor platelet concentrates
T4 sequence (P08514 32-887 limits assumed): as the sequence (P08514 32-887 limits assumed) above
T4 sequence (P08514 891-1039 partner limits assumed): as the sequence (P08514 891-1039 partner limits assumed) above
T4 sequence (P05106 27-788): as the sequence (P05106 27-788) above
Description: In brief, the His-tagged membrane scaffold protein is prepared as a recombinant protein in E. coli and purified by Nickel affinity chromatography and anion exchange chromatography. Final assembly consists of solubilizing an equimolar mixture of 1,2-dimyristoyl-sn-glycero-3-phosphocholine and 1,2-dimyristoyl-sn-glycero-3-phospho-(1′-rac-glycerol) in octylglucoside and cholate and then adding the purified αIIbβ3. The detergents are removed with macroporous polymeric beads (Bio-Bead SM-2) and then the αIIbβ3 nanodiscs are separated from the empty nanodiscs by gel filtration.
αIIbβ3 nanodiscs are treated with eptifibatide, tirofiban, 2-ethyl-7-(piperazin-1-yl)-5H-[1,3,4]thiadiazolo-[3,2-a]pyrimidin-5-one of U.S. Ser. No. 12/514,286, or the compound of Example 27 of the current invention for 1 hour at room temperature at concentrations up to 100 μM for 2-ethyl-7-(piperazin-1-yl)-5H-[1,3,4]thiadiazolo-[3,2-a]pyrimidin-5-one (a compound claimed in U.S. Ser. No. 12/514,286) and at concentrations up to 10 μM for 2-amino-N-(3-(5-oxo-7-(piperazin-1-yl)-5H-[1,3,4]thiadiazolo[3,2-a]pyrimidin-2-yl)phenyl)acetamide of Example 27. Samples are loaded onto carbon-coated copper grids that are glow-discharged by a carbon coating unit (Edwards; Crowley, UK), and then stained with 2% uranyl acetate, followed by drying. Imaging of αIIbβ3 nanodiscs is performed using a JOEL JEM 100CX transmission electron microscope (Jeol Ltd; Tokyo, Japan) at 80 kV and magnifications of 33,000× and 50,000×. Individual nanodiscs containing αIIbβ3 are manually selected for analysis using Image J (NIH, Bethesda, Md.). The distance from the bottom of the nanodisc to the height of the αIIbβ3 complex (nanodisc-integrin length; NIL) is measured as an indicator of integrin extension. The frequency distribution of NIL values is then analyzed for untreated αIIbβ3 nanodiscs and αIIbβ3 nanodiscs in the presence of different compounds.

washed platelets [5] = assay: Effect of Mg2+ on washed platelet aggregation induced by thrombin receptor activating peptide (SFLLRN); type: cell-based, human; details: compound at 100 μM; SFLLRN 10 μM
Description: Washed platelets are resuspended in buffer containing fibrinogen (200 μg/ml) and 1 mM […] in combination with either 1 mM or 20 mM Mg^2+. Aggregation is induced by adding a thrombin receptor activating peptide (SFLLRN) at 10 μM.

washed platelets [6] = assay: Effect of Mg2+ concentration on platelet adhesion to fibrinogen; type: cell-based, human; details: 1, 20, 50 mM Mg2+
Description: Washed platelets in buffers containing 1 mM Ca^2+ plus 1 mM, 20 mM, or 50 mM Mg^2+ are added to wells pre-coated with fibrinogen (50 μg/ml) for 60 min at 22° C. After washing, adherent platelets are detected by acid phosphatase activity. Results are expressed as mean±SD (n=3 for the compound of Example 27 of the current invention and 2-ethyl-7-(piperazin-1-yl)-5H-[1,3,4]thiadiazolo-[3,2-a]pyrimidin-5-one (a compound disclosed and claimed in U.S. Ser. No. 12/514,286); n=2 for tirofiban).

For `NCC(=O)Nc1cccc(-c2nn3c(=O)cc(N4CCNCC4)nc3s2)c1` [2-amino-N-(3-(5-oxo-7-(piperazin-1-yl)-5H-[1,3,4]thiadiazolo[3,2-a]pyrimidin-2-yl)phenyl)acetamide], the inhibition at 10 µM ([1]; 10 μM) was 6 ± 15%.
For `CCc1nn2c(=O)cc(N3CCNCC3)nc2s1` [Example 1, 2-ethyl-7-(piperazin-1-yl)-5H-[1,3,4]thiadiazolo[3,2-a]pyrimidin-5-one], the inhibition at 10 µM (platelets [2]) was 22 ± 8%, the inhibition at 30 µM (platelets [2]; 30 μM, 5 separate experiments) was 38 ± 10% and the inhibition at 100 µM (platelets [2]; 100 μM, 5 separate experiments) was 70 ± 15%. For the same molecule, the IC50 (platelets [3]; Homo sapiens, Platelet) was 12 µM, the IC50 (platelets [3]) was 18 µM and the inhibition at 100 µM ([1]; 100 μM) was 5 ± 7%. For the same molecule, the inhibition at 100 µM [4] was 55 ± 5%, the “AP5 binding, % of the amount in the presence of eptifibatide” value (αIIbβ3) was 10±4% and 10% and the “LIBS1 binding after 30 min, % of the amount in the presence of eptifibatide” value (αIIbβ3) was 18±2%. For the same molecule, the “PMI-1 binding, % of the amount bound by platelets treated with eptifibatide” value (αIIbβ3) was 73±9%, the “shift of nanodisc-integrin length (NIL) values / receptor extension” value (purified αIIbβ3; concentrations up to 100 μM) was “do not induce receptor extension” and the “effect of Mg2+ on the inhibition of SFLLRN-induced platelet aggregation” value (washed platelets [5]) was “much less evident”.
`N=C(N)NCCCC[C@@H]1NC(=O)CCSSC[C@@H](C(N)=O)NC(=O)[C@@H]2CCCN2C(=O)[C@H](Cc2c[nH]c3ccccc23)NC(=O)[C@H](CC(=O)O)NC(=O)CNC1=O` [eptifibatide, reference compound] ([Mpa][hArg]GDWPC-NH2; disulfide 1-7) was tested, and the “shift of nanodisc-integrin length (NIL) frequency distribution” value (purified αIIbβ3) was “shift the distribution in a dose-dependent manner”.
For `CCCCS(=O)(=O)N[C@@H](Cc1ccc(OCCCCC2CCNCC2)cc1)C(=O)O` [tirofiban, reference compound], the inhibition at 10 µM (platelets [2]) was 87 ± 9%, the “shift of nanodisc-integrin length (NIL) frequency distribution” value (purified αIIbβ3) was “shift the distribution in a dose-dependent manner” and the “increase in IC50 at higher Mg2+ concentrations comparable to that of Example 27” value (washed platelets [6]) was “nor tirofiban shows a comparable increase in IC50”.
